In patent US12447149B2, “Formulations of vimseltinib” (Deciphera Pharmaceuticals, LLC, priority 2023, dated 2025):

Columns and labels:
Assay type in all cases: physicochemical
[1] = Static storage stability of crystalline dihydrate and anhydrous forms (XRPD, DSC, KF weekly for four weeks)
Protocol: The stability of crystalline dihydrate and anhydrous forms of the compound represented by Formula (I) at varying relative humidity (RH) and temperature was investigated.
For example, the stability of crystalline dihydrate and anhydrous forms of the compound represented by Formula (I), as prepared according to Example 1 and Example 2, respectively, was studied under other conditions by placing aliquots of each form in static storage at conditions of 40° C./75% RH, 25° C./97% RH, 40° C./0% RH and 25° C./0% RH and analyzing the aliquots once weekly for four weeks using XRPD, DSC, and KF.

[2] = Particle size distribution (PSD) of crystalline dihydrate form and seeds, DMAC-water crystallization
[3] = Particle size analysis by laser diffraction (Malvern Mastersizer 3000, wet dispersion); conditions: volume distribution
Protocol: Particle size analysis of dihydrate vimseltinib drug substance samples was determined by laser diffraction using a Malvern Mastersizer 3000 instrument in a wet dispersion mode.
Prior to analysis, dihydrate drug substance samples were rotated and inverted in the sample container at least 10 times to ensure homogeneity. Between 20 and 25 mg of sample was weighed into a Malvern Glass tube. 20 mL of the Dispersant Solution (0.1% Span 85 in Isoparaffin G) was added and vortexed until a homogeneous suspension was obtained (˜30 s). The sample was then placed in a Vibra-Cell ultrasonic processor. The amplitude was set to the target of 30% (4 Watts) using an external probe (Vibra-Cell) during 90 sec.
After background measurement, the sample dispersion was slowly added to the dispersion unit of the instrument to achieve an obscuration level target of 5%. The sample was stirred at 3250 rpm for at least 1 minute to ensure dispersion and stabilization of the sample. After stabilization, the measurement was started and performed using a Malvern Mastersizer 3000 according to the method conditions provided in Table 17.

[4] = jet-milled seed batch, crystallization 1 at 60° C. with 7% seeds, crystallization 2 at 64° C. with 5% seeds
[5] = storage 25° C./0% RH, Week 4, listed as crystalline dihydrate form (having average crystal sizes of about 1 mm)
[6] = storage 40° C./0% RH, Week 4, listed as crystalline dihydrate form (having average crystal sizes of about 1 mm)
[7] = milled seeds of crystalline dihydrate form used in DMAC-water crystallization, listed as 1
[8] = milled seeds of crystalline dihydrate form used in DMAC-water crystallization, listed as 2

## Cc1nc(-c2cnc(NC(C)C)n(C)c2=O)ccc1Oc1ccnc(-c2cnn(C)c2)c1
[1]; storage 25° C./0% RH, Week 1
  KF (%): 0.1%
  XRPD: Anhydrous
[1]; storage 25° C./0% RH, Week 2
  KF (%): 0.1%
  XRPD: Anhydrous
[1]; storage 25° C./0% RH, Week 3
  KF (%): 0.0%
  XRPD: Anhydrous
[1]; storage 25° C./0% RH, Week 4
  KF (%): 0.2%
  XRPD: Anhydrous
[1]; storage 25° C./97% RH, Week 1
  KF (%): 0.3%
  XRPD: Anhydrous
[1]; storage 25° C./97% RH, Week 2
  KF (%): 0.3%
  XRPD: Anhydrous
[1]; storage 25° C./97% RH, Week 3
  KF (%): 0.2%
  XRPD: Anhydrous
[1]; storage 25° C./97% RH, Week 4
  KF (%): 0.4%
  XRPD: Anhydrous
[1]; storage 40° C./0% RH, Week 1
  KF (%): 0.1%
  XRPD: Anhydrous
[1]; storage 40° C./0% RH, Week 2
  KF (%): 0.0%
  XRPD: Anhydrous
[1]; storage 40° C./0% RH, Week 3
  KF (%): 0.0%
  XRPD: Anhydrous
[1]; storage 40° C./0% RH, Week 4
  KF (%): 0.2%
  XRPD: Anhydrous
[1]; storage 40° C./75% RH, Week 1
  KF (%): 0.3%
  XRPD: Anhydrous
[1]; storage 40° C./75% RH, Week 2
  KF (%): 0.2%
  XRPD: Anhydrous
[1]; storage 40° C./75% RH, Week 3
  KF (%): 0.1%
  XRPD: Anhydrous
[1]; storage 40° C./75% RH, Week 4
  KF (%): 0.3%
  XRPD: Anhydrous

## Cc1nc(-c2cnc(NC(C)C)n(C)c2=O)ccc1Oc1ccnc(-c2cnn(C)c2)c1.O.O [Crystalline dihydrate form of the compound represented by Fo] [listing 1 of 2 here]
[2]; [4]
  Particle Size d10: 3.6 microns
  Particle Size d50: 8.4 microns
  Particle Size d90: 16.2 microns

## Cc1nc(-c2cnc(NC(C)C)n(C)c2=O)ccc1Oc1ccnc(-c2cnn(C)c2)c1.O.O [Crystalline dihydrate form of the compound represented by Fo] [listing 2 of 2 here]
[2]; [4]
  Particle Size d10: 3.9 microns
  Particle Size d50: 8.5 microns
  Particle Size d90: 16.0 microns

## Cc1nc(-c2cnc(NC(C)C)n(C)c2=O)ccc1Oc1ccnc(-c2cnn(C)c2)c1.O.O [Dihydrate form of the compound represented by Formula (I) (h] [listing 1 of 2 here]
[1]; storage 25° C./0% RH, Week 1
  KF (%): 7.7%
  XRPD: Dihydrate
[1]; storage 25° C./0% RH, Week 2
  KF (%): 7.6%
  XRPD: Dihydrate
[1]; storage 25° C./0% RH, Week 3
  KF (%): 7.2%
  XRPD: Dihydrate
[1]; storage 25° C./0% RH, Week 4
  KF (%): 5.8%
[1]; [5]
  KF (%): 5.8%
  XRPD: partially converted to the crystalline anhydrous form
[1]; storage 25° C./97% RH, Week 1
  KF (%): 7.7%
  XRPD: Dihydrate
[1]; storage 25° C./97% RH, Week 2
  KF (%): 7.7%
  XRPD: Dihydrate
[1]; storage 25° C./97% RH, Week 3
  KF (%): 7.4%
  XRPD: Dihydrate
[1]; storage 25° C./97% RH, Week 4
  KF (%): 7.7%
  XRPD: Dihydrate
[1]; storage 25° C./97% RH, Week 4, listed as crystalline dihydrate form (having average crystal sizes of about 1 mm)
  XRPD: remained stable and unchanged
[1]; storage 40° C./0% RH, Week 1
  KF (%): 0.8%
[1]; storage 40° C./0% RH, Week 2
  KF (%): 0.3%
[1]; storage 40° C./0% RH, Week 3
  KF (%): 0.1%
  XRPD: Anhydrous
[1]; storage 40° C./0% RH, Week 4
  KF (%): 0.2%
[1]; [6]
  KF (%): 0.2%
  XRPD: partially converted to the crystalline anhydrous form
[1]; storage 40° C./75% RH, Week 1
  KF (%): 7.7%
  XRPD: Dihydrate
[1]; storage 40° C./75% RH, Week 2
  KF (%): 7.6%
  XRPD: Dihydrate
[1]; storage 40° C./75% RH, Week 3
  KF (%): 7.7%
  XRPD: Dihydrate
[1]; storage 40° C./75% RH, Week 4
  KF (%): 7.7%
  XRPD: Dihydrate
[1]; storage 40° C./75% RH, Week 4, listed as crystalline dihydrate form (having average crystal sizes of about 1 mm)
  XRPD: remained stable and unchanged

## Cc1nc(-c2cnc(NC(C)C)n(C)c2=O)ccc1Oc1ccnc(-c2cnn(C)c2)c1.O.O [Dihydrate form of the compound represented by Formula (I) (h] [listing 2 of 2 here]
[1]; storage 25° C./0% RH, Week 1
  KF (%): 7.5%
[1]; storage 25° C./0% RH, Week 2
  KF (%): 7.7%
[1]; storage 25° C./0% RH, Week 3
  KF (%): 8.1%
[1]; storage 25° C./0% RH, Week 4
  KF (%): 7.9%
  XRPD: Dihydrate
[1]; storage 25° C./97% RH, Week 1
  KF (%): 7.6%
[1]; storage 25° C./97% RH, Week 2
  KF (%): 7.5%
[1]; storage 25° C./97% RH, Week 3
  KF (%): 7.9%
[1]; storage 25° C./97% RH, Week 4
  KF (%): 7.9%
[1]; storage 40° C./0% RH, Week 1
  KF (%): 7.5%
  XRPD: Pattern 4
[1]; storage 40° C./0% RH, Week 1, listed as crystalline dihydrate form (having crystal sizes in the range of about 10-50 μm)
  XRPD: Pattern 4
[1]; storage 40° C./0% RH, Week 2
  KF (%): 7.4%
  XRPD: Pattern 4
[1]; storage 40° C./0% RH, Week 2, listed as crystalline dihydrate form (having crystal sizes in the range of about 10-50 μm)
  XRPD: Pattern 4
[1]; storage 40° C./0% RH, Week 3
  KF (%): 7.0%
[1]; storage 40° C./0% RH, Week 3, listed as crystalline dihydrate form (having crystal sizes in the range of about 10-50 μm)
  XRPD: Pattern 4 and peaks at 9.9° and 10.6°
[1]; storage 40° C./0% RH, Week 4
  KF (%): 3.4%
[1]; storage 40° C./0% RH, Week 4, listed as crystalline dihydrate form (having crystal sizes in the range of about 10-50 μm)
  XRPD: Pattern 4 and peaks at 9.9° and 10.6°
[1]; storage 40° C./75% RH, Week 1
  KF (%): 7.5%
[1]; storage 40° C./75% RH, Week 2
  KF (%): 7.9%
[1]; storage 40° C./75% RH, Week 3
  KF (%): 8.0%
[1]; storage 40° C./75% RH, Week 4
  KF (%): 7.9%

## Cc1nc(-c2cnc(NC(C)C)n(C)c2=O)ccc1Oc1ccnc(-c2cnn(C)c2)c1.O.O [Lot 1]
[2]; [7]
  Particle Size d10: 2 microns
  Particle Size d50: 5 microns
  Particle Size d90: 13 microns
[3]; listed as 1
  D(10): 9 μm
  D(50): 29 μm
  D(90): 59 μm

## Cc1nc(-c2cnc(NC(C)C)n(C)c2=O)ccc1Oc1ccnc(-c2cnn(C)c2)c1.O.O [Lot 2]
[2]; [8]
  Particle Size d10: 2 microns
  Particle Size d50: 6 microns
  Particle Size d90: 11 microns
[3]; listed as 2
  D(10): 6 μm
  D(50): 18 μm
  D(90): 37 μm
